Results as given in patent US20230048888A1, “USE OF TRIAZOLOTRIAZINE DERIVATIVE IN TREATMENT OF DISEASES” (ZHEJIANG VIMGREEN PHARMACEUTICALS, LTD., priority 2019, published 2023).

How the values were obtained:
[1] = Pharmacokinetics of Compounds 27, 16, 14 and 22 in SD rats; format: in vivo; conditions: for AUC(0-t) / Cmax / half-life / clearance: Sprague-Dawley, rat, in vivo; for clearance: read-out: Cl—pred (converted)
Excerpt: WinNonlin® 6.4 was used as the calculation software for PK parameters.

[2] = Pharmacokinetics of test compounds in SD rats (15.2; IV and PO, mixed administration); format: in vivo; conditions: for Cl_pred / AUC(0-t) / Cmax / half-life: IV; for AUC(0-t) / Cmax / half-life: male, Sprague-Dawley, rat, plasma; for half-life: read-out: T½ (converted)
human ADORA3 = target: T1, human ADORA3 (Homo sapiens, UniProt P0DMS8); assay: Calcium flow test (FLIPR), ADORA3 stably transfected CHO; format: cell-based; conditions: Table 9
T1 construct: host or cells: CHO
T1 sequence (P0DMS8 1-318): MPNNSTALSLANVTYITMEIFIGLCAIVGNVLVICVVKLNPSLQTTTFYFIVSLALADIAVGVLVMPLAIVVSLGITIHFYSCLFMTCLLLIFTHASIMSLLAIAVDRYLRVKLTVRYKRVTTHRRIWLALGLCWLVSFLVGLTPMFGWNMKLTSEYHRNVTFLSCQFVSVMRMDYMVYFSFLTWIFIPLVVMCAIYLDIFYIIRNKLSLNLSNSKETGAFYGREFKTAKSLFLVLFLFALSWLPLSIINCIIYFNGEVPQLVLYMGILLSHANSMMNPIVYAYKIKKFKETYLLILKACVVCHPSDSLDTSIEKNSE
Protocol: In this experiment, stably transfected cell lines over-expressing adenosine receptor coupled to human Gq were used, and the antagonistic function of Compound 22 was evaluated by testing the changes in intracellular calcium ion concentration. The binding of the A2AR agonist to A2AR could activate a downstream pathway to increase the intracellular calcium ion concentration. The antagonist would competitively occupy the binding site where the agonist binds to A2AR, thereby interrupting the intracellular signal transduction and leading to a change in the intracellular calcium ion concentration. By detecting the strength of the intracellular calcium ion signal, the antagonistic activities of the compound on human ADORA1, ADORA2A, ADORA2B and ADORA3 adenosine receptors were determined. […]
7) The FLIPR instrument software was operated; following a set program, 10 μL of experimental buffer salt solution was added to the cell plate; and fluorescence signals were read. Then, 10 μL of the reference compound of agonist at a predetermined concentration was added to the cell plate, and the fluorescence signals were read. After reading, data was exported by means of “Max-Min” and “Read 91 to Maximum allowed” in the software, the EC80 of each cell line was calculated, and an agonist with a concentration of 6×EC80 was prepared.
9) The FLIPR instrument software was operated; following a set program, 10 μL of the test compound and 10 μL of the reference compound were added at a predetermined concentration to the cell plate; and the fluorescence signals were read. Then, 10 μL of the reference compound of agonist at a concentration of 6×EC80 was added to the cell plate, and the fluorescence signal were read. For the antagonist detection of the compound, data was exported by means of “Max-Min” and “Read 1 to 90” in the software. […]

[3] = target: T2, Human adenosine ADORA2B receptor membrane protein (Homo sapiens, UniProt P29275); assay: Radioisotope ligand competitive binding, ADORA2B ([3H] DPCPX); conditions: ADORA2B (IC50, nM, n = 3), binding test
T2 construct: purchased PerkinElmer ES-013-M400UA
T2 sequence (P29275 1-332): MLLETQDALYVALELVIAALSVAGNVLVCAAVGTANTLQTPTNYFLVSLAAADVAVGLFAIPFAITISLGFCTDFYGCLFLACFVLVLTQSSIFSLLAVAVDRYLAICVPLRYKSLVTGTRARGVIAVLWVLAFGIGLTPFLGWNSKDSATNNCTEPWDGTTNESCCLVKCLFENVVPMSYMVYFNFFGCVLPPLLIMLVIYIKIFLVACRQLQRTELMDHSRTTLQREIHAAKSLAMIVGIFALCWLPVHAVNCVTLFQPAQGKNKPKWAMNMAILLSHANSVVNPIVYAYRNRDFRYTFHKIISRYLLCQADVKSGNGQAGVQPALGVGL
Protocol: ADORA2B: 50 mM HEPES pH 7.0, 5 mM MgCl2, 1 mM EDTA
4) Preparation of compounds: the test compounds and the reference compounds were separately diluted with 100% DMSO.
1 μL of a sample to be tested and 1 μL of a reference compound were added to a 96-well plate in sequence. […] 100 μL of cells and 100 μL of isotopes were added to all experimental wells. The 96-well plate was sealed; ADORA1, ADORA2B, and ADORA3 were incubated for 1 hour on a shaker (300 rpm) at room temperature (22° C.); and ADORA2A was incubated for 2 hours on a shaker (300 rpm) at room temperature (22° C.). At the same time, a GF/C filter plate was soaked with ADORA1, ADORA2A, ADORA2B, and ADORA3 by using 0.3% PEI for at least 30 minutes at room temperature, at 50 μL/well. After the incubation was completed, the incubated reaction system was collected onto the GF/C filter plate with a Harvester, washed 4 times and then dried for 0.5 hours in an oven at 50° C. The bottom of the dried GF/C filter plate was sealed with a film, 50 μL of scintillation solution was added to each well, which was then sealed with a Top-seal-A film. With Microbeta readings, the data was analyzed by GraphPad Prism 5.0.
% Inhibition=100×(1−(Sample_raw value−Low control_Average)/(High control_Average−Low control_Average))
The data was fitted with “log(inhibitor) vs response-variable slope” in GraphPad Prism 5.0 to obtain IC50.

Compound | AUC(0-t) ([1]; IV, dose 1 (mg/kg)) [ng·h/mL] | Cmax ([1]; IV, dose 1 (mg/kg)) [ng/mL] | half-life ([1]; IV, dose 1 (mg/kg)) [min] | clearance ([1]; IV, dose 1 (mg/kg)) [mL/min/kg] | Cl_pred ([2]; 1 mg/kg) [mL/h/kg] | AUC(0-t) ([2]; 1 mg/kg) [ng·h/mL] | Cmax ([2]; 1 mg/kg) [ng/mL] | half-life ([2]; 1 mg/kg) [min] | IC50 (human ADORA3) [µM] | IC50 ([3]; Table 10 (IC50)) [nM] | IC50 ([3]; Table 11) [nM] | further results
COCCNc1ccc(CCNc2nc(N)n3nc(-c4ccco4)nc3n2)cc1 [Compound 27, 2-(furan-2-yl)-N5-(4-((2-methoxyethyl)amino)phenethyl)-[1,2,4]triazolo[1,5-a][1,3,5]triazine-5,7-diamine] | 477 | 1340 | 30.6 | 36 | 11331.4 | 83.8 | 139 | 28.2 | – | – | – | Cl—F—pred ([1]; PO, dose 5 (mg/kg)): 8.82 L/h/kg; F ([1]; PO, dose 5 (mg/kg)): 33.85%; AUC(0-t) ([1]; PO, dose 5 (mg/kg)): 484 ng·h/mL; Cmax ([1]; PO, dose 5 (mg/kg)): 318 ng/mL; half-life ([1]; PO, dose 5 (mg/kg)): 262 min
Nc1nc(NCCc2ccc(NC3COC3)cc2)nc2nc(-c3ccco3)nn12 [Compound 22, 2-(furan-2-yl)-N5-(4-(oxetan-3-ylamino)phenethyl)-[1,2,4]triazolo[1,5-a][1,3,5]triazine-5,7-diamine] | 1770 | 2350 | 60 | 9.5 | – | – | – | – | 0.931 ± 0.0541 | 344 ± 181 | 310 | Cl—F—pred ([1]; PO, dose 3 (mg/kg)): 1.52 L/h/kg; F ([1]; PO, dose 3 (mg/kg)): 39.49%; AUC(0-t) ([1]; PO, dose 3 (mg/kg)): 2100 ng·h/mL; Cmax ([1]; PO, dose 3 (mg/kg)): 580 ng/mL; half-life ([1]; PO, dose 3 (mg/kg)): 198 min
Cn1nnc(-c2ccc(CCNc3nc(N)n4nc(-c5ccco5)nc4n3)cc2)n1 [Compound 40, N5-(4-(2-methyl-2H-tetrazol-5-yl)phenethyl)-2-(furan-2-yl)-[1,2,4]triazolo[1,5-a][1,3,5]triazine-5,7-diamine] | – | – | – | – | 710.04 | 1410 | 1280 | 46.8 | 6.3 ± 2.89 | 268 ± 87.5 | 242 | Cl_pred ([2]; 1.64 mg/kg): 1622.87 mL/h/kg; Cl_F_pred ([2]; PO, […]): 1395.24 mL/h/kg; F ([2]; PO, […]): 116.3%; AUC(0-t) ([2]; 1.64 mg/kg): 1010 ng·h/mL; Cmax ([2]; 1.64 mg/kg): 1310 ng/mL; half-life ([2]; 1.64 mg/kg): 31.8 min
